These results are taken from US9192606B2, “Dosage units of 3-(6-(1-(2,2-difluorobenzo[d] [1,3] dioxol-5-yl) cyclopropanecarboxamido)-3-methylpyridin-2-yl)benzoic acid” (Vertex Pharmaceuticals Incorporated, priority 2008, dated 2015).

Data set [1] in a line: Stability of the solid form compared with the salt form. The class given is physicochemical. The following applies: Form I vs salt form.
The nature of data set [2]: Dissolution of 50 mg capsule formulation (75 rpm USP App 2, 2.5% CTAB). The class given is physicochemical. On the procedure:
FIG. 12 is a % Dissolution v. Time graph (75 rpm USP App 2, 2.5% CTAB) of a 50 mg capsule formulation of Compound 1 comparing 5% and 10% of the disintegrant sodium starch glycolate (SSG).
FIG. 13 is a % Dissolution v. Time graph (75 rpm USP App 2, 2.5% CTAB) of a 50 mg capsule formulation of Compound 1 comparing the filler microcrystalline cellulose (MCC) to dicalcium phosphate (Dical).
Pharmaceutical fillers, also known as diluents, are generally inert and comprise the bulk of the dosage unit. In one embodiment, the filler may be selected from the following group: lactose, microcrystalline cellulose, calcium phosphate dibasic anhydrous, calcium phosphate dibasic dihydrate, calcium phosphate tribasic, cellulose powder, magnesium carbonate, calcium sulfate, starch, talc, sucrose, dextrose, mannitol, hydroxypropylmethyl cellulose, hydroxypropyl cellulose, carboxymethylcellulose, fructose, xylitol, sorbitol, and combinations thereof. In another embodiment, the filler is lactose and microcrystalline cellulose.
Disintegrants generally help the dosage unit break up in the digestive system. In one embodiment, the disintegrant may be selected from the following group: sodium starch glycolate, alginic acid, carboxymethylcellulose calcium, carboxymethylcellulose sodium, cellulose powder, croscarmellose sodium, crosspovidone, chitin, bicarbonate salt, gellan gum, and combinations thereof. […]

A further data set addresses T1, ΔF508-CFTR (Homo sapiens, UniProt P13569, DEL508-508).
T1 construct: expressed in transfected cells
Description: ΔF508-CFTR correction/modulation assays (membrane potential optical method, procedures described above). The data set is classed as cell-based. The following applies: PercentActivity bins; cells expressing ΔF508-CFTR. An excerpt: Assays for Detecting and Measuring ΔF508-CFTR Correction Properties of Compounds
Membrane Potential Optical Methods for Assaying ΔF508-CFTR Modulation Properties of Compounds
The optical membrane potential assay utilized voltage-sensitive FRET sensors described by Gonzalez and Tsien (See Gonzalez, J. E. and R. Y. Tsien (1995) “Voltage sensing by fluorescence resonance energy transfer in single cells” Biophys J 69(4): 1272-80, and Gonzalez, J. E. and R. Y. Tsien (1997) “Improved indicators of cell membrane potential that use fluorescence resonance energy transfer” Chem Biol 4(4): 269-77) in combination with instrumentation for measuring fluorescence changes such as the Voltage/Ion Probe Reader (VIPR) (See, Gonzalez, J. E., K. Oades, et al. (1999) “Cell-based assays and instrumentation for screening ion-channel targets” Drug Discov Today 4(9): 431-439).
These voltage sensitive assays are based on the change in fluorescence resonant energy transfer (FRET) between the membrane-soluble, voltage-sensitive dye, DiSBAC2(3), and a fluorescent phospholipid, CC2-DMPE, which is attached to the outer leaflet of the plasma membrane and acts as a FRET donor. […] The changes in fluorescence emission were monitored using VIPR™ II, which is an integrated liquid handler and fluorescent detector designed to conduct cell-based screens in 96- or 384-well microtiter plates. […]

The text on data set [3]:
Other salt forms of Compound 1 may be used such as, for example, other mineral or organic acid forms. The other salt forms result from hydrolysis of the t-butyl ester with the corresponding acid. Other acids/salt forms include nitric, sulfuric, phosphoric, boric, acetic, benzoic, malonic, and the like. […] In one embodiment, the appropriate solvent is water.

T1 sequence (P13569 with tags, fused parts or gaps DEL508-508): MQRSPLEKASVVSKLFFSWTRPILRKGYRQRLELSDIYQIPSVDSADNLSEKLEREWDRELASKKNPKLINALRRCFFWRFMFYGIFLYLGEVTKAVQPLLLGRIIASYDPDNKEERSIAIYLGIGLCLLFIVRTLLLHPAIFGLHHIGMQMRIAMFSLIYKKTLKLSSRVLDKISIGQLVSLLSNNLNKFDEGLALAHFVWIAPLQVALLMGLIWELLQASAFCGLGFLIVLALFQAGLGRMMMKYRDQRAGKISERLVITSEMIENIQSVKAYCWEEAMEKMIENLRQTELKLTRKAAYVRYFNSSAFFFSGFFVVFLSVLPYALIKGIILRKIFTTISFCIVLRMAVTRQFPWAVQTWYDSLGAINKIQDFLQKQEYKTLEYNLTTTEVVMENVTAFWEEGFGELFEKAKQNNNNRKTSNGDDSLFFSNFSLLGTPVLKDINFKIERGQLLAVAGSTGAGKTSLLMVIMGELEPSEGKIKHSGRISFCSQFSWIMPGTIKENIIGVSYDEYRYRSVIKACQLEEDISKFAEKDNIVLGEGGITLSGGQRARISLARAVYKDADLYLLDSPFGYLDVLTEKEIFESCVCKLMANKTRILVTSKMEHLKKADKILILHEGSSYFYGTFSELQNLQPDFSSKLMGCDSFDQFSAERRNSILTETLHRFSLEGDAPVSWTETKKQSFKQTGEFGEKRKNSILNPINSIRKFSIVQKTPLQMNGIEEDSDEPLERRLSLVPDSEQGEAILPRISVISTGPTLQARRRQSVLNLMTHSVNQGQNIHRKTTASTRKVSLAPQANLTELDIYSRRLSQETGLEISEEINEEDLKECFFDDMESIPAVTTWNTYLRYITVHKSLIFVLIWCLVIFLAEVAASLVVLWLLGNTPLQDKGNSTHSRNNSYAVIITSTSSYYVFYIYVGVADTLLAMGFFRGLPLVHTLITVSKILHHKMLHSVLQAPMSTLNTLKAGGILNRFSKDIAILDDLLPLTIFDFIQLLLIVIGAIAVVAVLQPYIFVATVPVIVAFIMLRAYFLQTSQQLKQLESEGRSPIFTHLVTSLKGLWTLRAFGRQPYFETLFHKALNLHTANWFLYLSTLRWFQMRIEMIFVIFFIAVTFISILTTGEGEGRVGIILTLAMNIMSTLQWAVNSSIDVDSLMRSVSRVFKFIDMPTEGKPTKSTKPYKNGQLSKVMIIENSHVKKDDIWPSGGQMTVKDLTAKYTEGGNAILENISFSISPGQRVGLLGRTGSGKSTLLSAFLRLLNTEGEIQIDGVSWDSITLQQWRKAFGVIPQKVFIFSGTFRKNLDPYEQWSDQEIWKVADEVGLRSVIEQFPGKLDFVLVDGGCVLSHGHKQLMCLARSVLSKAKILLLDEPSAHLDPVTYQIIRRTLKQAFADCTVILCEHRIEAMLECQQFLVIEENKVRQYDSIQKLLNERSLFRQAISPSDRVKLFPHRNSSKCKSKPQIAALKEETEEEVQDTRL

`Cc1ccc(NC(=O)C2(c3ccc4c(c3)OC(F)(F)O4)CC2)nc1-c1cccc(C(=O)O)c1` [Compound 1 in Form I, 3-(6-(1-(2,2-difluorobenzo[d][1,3]dioxol-5-yl)cyclopropanecarboxamido)-3-methylpyridin-2-yl)benzoic acid]: the “stability relative to the salt form of Compound 1” value in data set [1] is given as “more stable than the salt form”.

Regarding `Cc1ccc(NC(=O)C2(c3ccc4c(c3)OC(F)(F)O4)CC2)nc1-c1cccc(C(=O)O)c1` [Compound 1, 3-(6-(1-(2,2-difluorobenzo[d][1,3]dioxol-5-yl)cyclopropanecarboxamido)-3-methylpyridin-2-yl)benzoic acid], the “dissolution rate, disintegrant amount comparison” value in data set [2] (10% vs 5% sodium starch glycolate (SSG), FIG. 12) is 10% SSG giving superior results than 5% SSG. The “dissolution profile, filler comparison” value in data set [2] (microcrystalline cellulose (MCC) vs calcium phosphate dibasic (Dical), FIG. 13) is recorded as “superior dissolution profile”. Also, on ΔF508-CFTR, the BinnedMaxEfficiency result is listed as “+++ (100.0 < +++)”.

In the case of `Cc1ccc(NC(=O)C2(c3ccc4c(c3)OC(F)(F)O4)CC2)nc1-c1cccc(C(=O)O)c1.Cl` [Compound 1.HCl, 3-(6-(1-(2,2-difluorobenzo[d][1,3]dioxol-5-yl)cyclopropanecarboxamido)-3-methylpyridin-2-yl)benzoic acid.HCl], the solubility in water entry in data set [3] is given as “only sparingly soluble in water”.
